Patent US12187716B2, “TYK2 kinase inhibitors” (SAREUM LIMITED, priority 2018, dated 2025)
Like-named read-outs stand apart in the source and are kept apart here.

How the values were obtained:
CYP3A4 = biological target: T1, CYP3A4 (Homo sapiens, UniProt P08684); experiment: Cytochrome P450 inhibition assay, CYP3A4; type: in vitro ADME; conditions: pooled human liver microsomes
T1 construct: from tissue; host or cells: pooled human liver microsomes
Experimental: (§1) The susceptibility of Compounds (2) and (3) to potential drug-drug interactions was tested by assaying their abilities to inhibit various cytochrome P450 isoforms. Prior art Compound B (see Example 3 above) was also tested as a comparative example. Test compounds, prepared and serially diluted in DMSO, were incubated at six concentrations (1% DMSO final) with pooled human liver microsomes in the presence of probe substrate for each isoform, and their effects on the metabolism of probe substrates determined. Incubations (in 96-well plates) were carried out at 37° C. in 0.1 M Tris buffer, pH 7.4, with reactions initiated by the addition of cofactor, NADPH (1 mM final concentration). At the specified times, reactions were terminated with acetonitrile containing an analytical internal standard, samples were centrifuged and the supernatant fractions were analysed for probe substrate metabolites by mass spectrometry (LC-MS/MS). The instrument responses were normalised to internal standard and compared to the appropriate solvent controls to determine the amount of metabolite formed from the probe substrates relative to these “uninhibited” controls. […] [table]

[1] = Hepatocyte stability assay, mouse; type: in vitro ADME; conditions: male, CD-1, pooled hepatocytes, 37° C.
Experimental: (§2) Test and control compounds were incubated with hepatocytes at 37° C. Aliquots were removed at 6 timepoints over a one hour period. Samples were centrifuged and the supernatant fractions analysed for parent compound by mass spectrometry (LC-MS/MS).
(§3) The amount of compound remaining (expressed as %) was determined from the MS response in each sample relative to that in the T=0 samples, and used to determine the half-life and intrinsic clearance of the compound.

[2] = system: STAT3 phosphorylation in Th17 cells; experiment: Inhibition of STAT3 phosphorylation in Th17 cells derived from human peripheral blood CD4CD45RO+ cells; type: cell-based
Experimental: Fresh human Peripheral blood CD4CD45RO+ cells were purchased commercially (Generon, UK); 3 separate vials from 3 different volunteers for experimental replicates. Cells were grown in T-cell medium (Thermo Fisher) containing 10 ng/ml recombinant human IL-1B (R&D Systems), IL-23 (R&D Systems), TGF-B1 (R&D Systems) and 50 ng/ml IL-6 (R&D Systems) together with anti-CD3/CD28 magnetic Dynabeads (Thermo Fisher). These were grown for 11 days to induce expansion of Th17 cells. Prior to plating for assays cells were grown overnight in T-cell medium supplemented with human serum (1%) overnight. Media was removed and replaced with unsupplemented RPMI for 4 h prior to assay.
To measure pSTAT3 levels, 200,000 cells were plated into a 96 well plate and preincubated with compounds for 30 minutes followed by stimulation with recombinant IL-23 at 12.5 ng/ml for 15 minutes then lysed using cell lysis buffer. pSTAT3 levels in the lysates were measured using a commercially available ELISA kit (Thermo Fisher; 85-86102-11).
ELISAs were carried out according to manufacturers instructions and absorbance read using a microplate reader (Thermo Fisher; Varioskan). Data was normalised to the response in untreated samples using the formula: % of control=((Stimulated sample Conc.−unstimulated sample Conc.)×100)/(Control stimulated Conc.−control unstimulated Conc.)
Graphpad Prism 8.1.0 was used to calculate I050 values using a Nonlinear 4 parameter logistic regression model (4PL).

[3] = Hepatocyte stability assay, rat; type: in vitro ADME; conditions: male, Sprague-Dawley, pooled hepatocytes, 37° C.
Experimental: as §2, §3

CYP1A2 = biological target: T2, CYP1A2 (Homo sapiens, UniProt P05177); experiment: Cytochrome P450 inhibition assay, CYP1A2; type: in vitro ADME; conditions: pooled human liver microsomes, probe Phenacetin
T2 sequence (P05177 1-516): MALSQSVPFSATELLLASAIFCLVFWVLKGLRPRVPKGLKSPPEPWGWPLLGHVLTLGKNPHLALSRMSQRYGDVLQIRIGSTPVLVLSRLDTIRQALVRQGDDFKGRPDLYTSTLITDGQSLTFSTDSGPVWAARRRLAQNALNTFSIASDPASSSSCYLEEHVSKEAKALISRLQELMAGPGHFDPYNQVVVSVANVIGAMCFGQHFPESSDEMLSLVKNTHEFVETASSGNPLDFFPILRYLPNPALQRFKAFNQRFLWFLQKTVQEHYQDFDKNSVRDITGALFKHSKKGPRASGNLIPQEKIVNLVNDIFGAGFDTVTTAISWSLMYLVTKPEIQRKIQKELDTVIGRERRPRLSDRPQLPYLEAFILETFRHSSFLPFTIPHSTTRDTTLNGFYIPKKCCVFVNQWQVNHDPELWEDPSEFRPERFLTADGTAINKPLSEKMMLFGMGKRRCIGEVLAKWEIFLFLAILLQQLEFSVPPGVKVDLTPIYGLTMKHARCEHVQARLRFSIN
Experimental: as §1

JAK3 = JAK3 (Homo sapiens, UniProt P52333); experiment: JAK3 kinase inhibition assay (33P-ATP filter binding, Reaction Biology)
Sequence of JAK3 (P52333 781-1124): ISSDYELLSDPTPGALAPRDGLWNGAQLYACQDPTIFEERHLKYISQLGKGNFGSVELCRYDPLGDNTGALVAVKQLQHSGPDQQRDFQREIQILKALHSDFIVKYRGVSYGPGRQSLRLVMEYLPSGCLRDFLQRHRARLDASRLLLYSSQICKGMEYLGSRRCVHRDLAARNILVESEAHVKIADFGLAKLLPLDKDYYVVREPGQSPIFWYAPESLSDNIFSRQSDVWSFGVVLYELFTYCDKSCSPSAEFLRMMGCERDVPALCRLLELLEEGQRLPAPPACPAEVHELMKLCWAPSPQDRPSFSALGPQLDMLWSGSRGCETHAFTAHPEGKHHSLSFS

CYP2B6 = biological target: T3, CYP2B6 (Homo sapiens, UniProt P20813); experiment: Cytochrome P450 inhibition assay, CYP2B6; type: in vitro ADME; conditions: pooled human liver microsomes, probe Bupropion
T3 construct: from tissue; host or cells: pooled human liver microsomes
T3 sequence (P20813 1-491): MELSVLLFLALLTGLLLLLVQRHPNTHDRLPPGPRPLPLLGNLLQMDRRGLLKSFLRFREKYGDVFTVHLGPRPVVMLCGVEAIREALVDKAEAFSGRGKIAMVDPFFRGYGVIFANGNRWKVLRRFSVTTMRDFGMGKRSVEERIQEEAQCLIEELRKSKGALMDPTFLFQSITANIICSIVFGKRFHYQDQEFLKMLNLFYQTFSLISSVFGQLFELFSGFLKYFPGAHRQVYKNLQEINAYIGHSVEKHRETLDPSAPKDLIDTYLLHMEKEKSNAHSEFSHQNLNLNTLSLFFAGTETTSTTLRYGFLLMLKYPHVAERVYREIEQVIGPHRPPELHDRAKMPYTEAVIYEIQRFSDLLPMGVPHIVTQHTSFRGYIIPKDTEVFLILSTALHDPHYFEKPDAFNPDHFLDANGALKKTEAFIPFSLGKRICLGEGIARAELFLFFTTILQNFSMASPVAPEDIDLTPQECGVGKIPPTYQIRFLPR
Experimental: as §1

CYP2D6 = biological target: T4, CYP2D6 (Homo sapiens, UniProt P10635); experiment: Cytochrome P450 inhibition assay, CYP2D6; type: in vitro ADME; conditions: pooled human liver microsomes, probe Dextromethorphan
T4 construct: from tissue; host or cells: pooled human liver microsomes
T4 sequence (P10635 whole entry): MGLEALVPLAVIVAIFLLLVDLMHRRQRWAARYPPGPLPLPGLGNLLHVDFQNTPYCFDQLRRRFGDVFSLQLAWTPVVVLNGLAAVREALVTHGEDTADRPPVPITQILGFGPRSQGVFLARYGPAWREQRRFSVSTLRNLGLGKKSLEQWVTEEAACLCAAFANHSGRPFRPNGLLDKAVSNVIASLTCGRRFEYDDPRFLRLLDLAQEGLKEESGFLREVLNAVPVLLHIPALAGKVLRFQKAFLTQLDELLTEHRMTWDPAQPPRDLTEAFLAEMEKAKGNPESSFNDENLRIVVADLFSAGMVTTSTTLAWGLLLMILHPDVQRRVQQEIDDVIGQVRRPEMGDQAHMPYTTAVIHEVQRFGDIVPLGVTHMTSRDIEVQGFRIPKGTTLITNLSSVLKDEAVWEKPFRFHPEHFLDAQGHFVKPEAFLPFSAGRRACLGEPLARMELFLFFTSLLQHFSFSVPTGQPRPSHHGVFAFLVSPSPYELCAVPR
Experimental: as §1

[4] = probe Midazolam, read-out: CYP3A4 (MID) IC50
[5] = probe Testosterone, read-out: CYP3A4 (Test) IC50
[6] = 0.25 h, IL-23 12.5 ng/ml, 15 minutes, Donor 1, read-out: Inhibition of STAT3 phosphorylation IC50, Donor 1
[7] = 0.25 h, IL-23 12.5 ng/ml, 15 minutes, Donor 2, read-out: Inhibition of STAT3 phosphorylation IC50, Donor 2
[8] = 0.25 h, IL-23 12.5 ng/ml, 15 minutes, Donor 3, read-out: Inhibition of STAT3 phosphorylation IC50, Donor 3
[9] = average of 3 donors, read-out: Inhibition of STAT3 phosphorylation IC50, Average

T1 sequence (P08684 whole entry): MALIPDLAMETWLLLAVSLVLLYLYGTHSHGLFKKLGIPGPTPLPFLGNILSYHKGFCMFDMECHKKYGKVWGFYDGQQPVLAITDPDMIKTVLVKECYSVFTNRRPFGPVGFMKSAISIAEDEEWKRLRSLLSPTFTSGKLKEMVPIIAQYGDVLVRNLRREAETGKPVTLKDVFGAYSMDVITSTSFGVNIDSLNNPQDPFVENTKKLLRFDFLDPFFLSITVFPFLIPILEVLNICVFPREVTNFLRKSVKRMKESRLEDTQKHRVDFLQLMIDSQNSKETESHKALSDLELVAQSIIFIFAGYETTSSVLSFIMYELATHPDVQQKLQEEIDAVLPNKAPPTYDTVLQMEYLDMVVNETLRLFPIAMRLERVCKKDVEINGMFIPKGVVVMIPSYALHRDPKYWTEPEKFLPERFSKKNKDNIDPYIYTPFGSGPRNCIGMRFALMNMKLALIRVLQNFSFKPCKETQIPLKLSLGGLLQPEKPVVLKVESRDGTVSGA

Row | IC50 (CYP3A4; [4]) [nM] | IC50 (CYP3A4; [5]) [nM] | hepatocyte CLint [1] [µL/min/1e6 cells] | half-life ([1]; read-out: Mouse T1/2) [min] | IC50 [2, 6] [nM] | IC50 [2, 7] [nM] | IC50 [2, 8] [nM] | IC50 [2, 9] [nM] | hepatocyte CLint [3] [µL/min/1e6 cells] | half-life ([3]; read-out: Rat T1/2) [min] | IC50 (CYP1A2) [nM] | IC50 (JAK3) [nM] | selectivity for TYK2 compared to JAK3 (JAK3; biochemical assays) [fold] | Selectivity v TYK2: JAK3 (JAK3; ratio of JAK3 IC50 to TYK2 IC50) | IC50 (CYP2B6) [nM] | IC50 (CYP2D6) [nM] | Compound
1 | > 30000 | > 30000 | 28 | 39.2 | 157 | 29 | 91 | 92 | 53.8 | 28.5 | > 30000 | 772 | ~164 | 164.3 | > 30000 | > 30000 | NC(=O)c1nc(-c2c(Cl)cccc2Cl)oc1Nc1ccc(C(=O)N2CCS(=O)(=O)CC2)c(F)c1 [Compound (3)]
2 | > 30000 | > 30000 | 40.5 |  | 111 | 17 | 54 | 61 | 104 |  | > 30000 | 271 |  |  | > 30000 | > 30000 | NC(=O)c1nc(-c2c(Cl)cccc2Cl)oc1Nc1ccc(C(=O)N2CCOCC2)cc1 [Comparative Compound B, 2-(2,6-dichloro-phenyl)-5-[4-(morpholine-4-carbonyl)-phenylamino]-oxazole-4-carboxylic acid amide, reference compound]
3 | > 30000 | > 30000 | 16.8 |  | 69 | 29 | 55 | 51 | 50 |  | > 30000 | 212 |  |  | > 30000 | > 30000 | NC(=O)c1nc(-c2c(Cl)cccc2Cl)oc1Nc1ccc(C(=O)N2CCS(=O)(=O)CC2)cc1 [Compound (2)]
